Reference: patent publication US4430263A, “Hapten-inhibitor immunoassay” (Abbott Laboratories, priority 1980, dated 1984)

Test system: sheep T4 antibody (gamma globulin / IgG fraction from sheep antiserum)
Experiment: Binding constant of T4 antibody binding sites (footnote to Table I, antibody modulation of STI-T4)
Settings: approximately 7.4 × 10^-8 M antibody binding sites; gamma globulin chromatographically isolated from sheep T4 antibody
Experimental: A working solution of 2.0 mg/ml gamma globulin (chromatographically isolated from sheep T4 antibody) is prepared in 0.1 M HEPES (N-2-hydroxyethylpiperazine-N'-2-ethanesulfonic acid) buffer, pH 8.0, containing 0.1% gelatin. A stock solution of the STI-T4 (soybean trypsin inhibitor-thyroxine) conjugate (8×10^-7 M) is also prepared in HEPES-gelatin buffer, pH 8.0. A trypsin stock solution is made at 1×10^-7 M in dilute HCl, pH 3.0, and stored at 4° C. The trypsin working reagent is diluted to a concentration of 8.2×10^-8 M with HCl gelatin, pH 3.0. Equal volumes (50 μl) of the thyroxine STI conjugate and antibody are mixed and incubated at room temperature for 5 minutes. Trypsin is then added to the mixture, incubated for 30 seconds, and a 25 μl portion of the assay mixture diluted into a cuvette with 250 μl of substrate (0.5 mM benzoylphenylalanylvalyl arginine p-nitroaniline in 0.05 M Tris pH 8.1 with 0.01 M CaCl2). The change in absorbance with time (t=5.5 minutes less t=0.5 minutes) is recorded using a Bichromatic Analyzer equipped with a 380/450 mμ filter. The following table gives the results for a suitable conjugate prepared in Example I.
A working solution of 1 mg/ml anti-T4 IgG (from sheep antiserum) is prepared in barbital buffer with gelatin. The approximate concentration of binding sites from […] analysis is 1.2×10^-7 M.

## N[C@@H](Cc1cc(I)c(Oc2cc(I)c(O)c(I)c2)c(I)c1)C(=O)O [thyroxine]
  K (antibody binding sites): ~1.3 × 10^9
